Laboratory results reported in patent publication US6627793B2, “Low temperature-inducible wheat WCS120 gene promoter” (Université du Québec A Montréal, priority 1998, dated 2003).

Legend:
[1] = test system: WCS120 family of proteins; test: In vivo okadaic acid treatment of wheat shoots at low temperature, western blot densitometry of WCS120 proteins; parameters: species or system wheat (Triticum aestivum L. cv Fredrick); details: 4° C.
Experimental: FIGS. 6. a) to c) Effect of in vivo okadaic acid treatment on the accumulation of the cold-inducible WCS120 family of proteins. Wheat seedlings were incubated at low temperature without or with different concentrations of okadaic acid (OA), and soluble proteins were extracted and separated by SDS-PAGE. a) Immunodetection of the WCS120 protein family in the soluble extracts. Following the treatment, the proteins were analyzed by western blot using the anti-WCS120 antibody. b) SDS-PAGE gel stained with Coomassie blue showing equal protein loading. c) Densitometric quantification of the individual protein bands of 50, 66 and 200 kDa of the immunoblot shown in a. The 50 kDa protein is encoded by Wcs120 gene. Values represent averages and standard deviations of the integrated intensity of the pixels for each protein band, excluding the background, from at least three independent experiments.
Wheat shoots were cut and immediately incubated in water or in the presence of the phosphatase inhibitor okadaic acid (OA) at 10, 100 or 1000 nM. The plants were left at room temperature for 4 hours to allow translocation of the inhibitor, then transferred to 4° C. for 24 hours, and the total soluble proteins were extracted as described (Limin, A. E., supra). […] The signal intensity for individual protein bands on the X-ray films was quantified with a Personal Densitometer SI (Molecular Dynamics) using the ImageQuaNT version 4.2 software. […]
To determine the role of protein phosphatases on the expression of Wcs120 gene, wheat seedlings were incubated at 4° C. in the presence of okadaic acid (a potent and specific inhibitor of protein phosphatases PP1 and PP2A) (Smith, R. D., et al. (1996) Annu. Rev. Plant. Physiol. Plant. Mol. Biol. 47:101-125). Soluble proteins were extracted and the accumulation of the WCS120 family of proteins was analyzed by quantitative densitometry of western blots. […]

[2] = test system: PKC-like activity in CA nuclear extracts; test: PKC activity in nuclear extracts with the PKC-specific substrate peptide MARCKS; assay type: biochemical, wheat
Experimental: FIGS. 5. a) to c) Analysis of endogenous kinases in nuclear extracts from non-acclimated (NA) and cold-acclimated (CA) wheat plants. a) In vitro phosphorylation of nuclear proteins. Equal amounts of nuclear proteins (10 μg) were incubated with [γ-^32P]ATP and separated by SDS-PAGE. The gel was dried and exposed to a X-ray film. b) Immunodetection of a PKCg homolog in nuclear and soluble extracts from non-acclimated (NA) and cold-acclimated (CA) plants. Equal amounts of proteins (10 μg) were separated by SDS-PAGE, blotted onto nitrocellulose membranes and probed with the anti-PKCg antibody. CA2 and CA7 indicate soluble extracts from 2 and 7 days cold-acclimated plants. c) PKC activity was measured in the nuclear extracts with the peptide MARCKS as the PKC-specific substrate and containing the indicated chemicals. […] Aliquotes of each reaction were separated by SDS-PAGE and visualized by autoradiography. PS, phosphatydylserine; DAG, diacylglycerol.
To determine the qualitative changes in the phosphorylation pattern following cold treatment, the nuclear extracts from both NA and CA plants (10 μg protein) were incubated for 5 to 40 min at 30° C. in binding buffer (Harter, K., supra) containing 1 mM MgCl2, 50 μCi [γ-^32P]ATP and 1 mM CaCl2. At specified intervals, reactions were stopped by adding one volume of 2× SDS-sample buffer and the proteins were separated by SDS-PAGE. Gels were dried, exposed to X-ray film and the signal intensity of individual bands was determined by quantitative densitometry. To accurately quantify the Ca^2+-dependent and Ca^2+-independent nuclear kinase activities, the incorporation of ^32P on histone III-S, casein or the PKC-specific substrate peptide MARCKS (Biomol; Blackshear, P. J. (1993) J. Biol. Chem. 268: 1501-1504) was determined as described elsewhere (Kitano, T., et al. (1986) Methods Enzymol. 124: 349-352). Histone III-S and casein are suitable substrates for phosphorylation assays, particularly when dealing with a crude mixture of uncharacterized protein kinases. […]

[3] = 1 μM okadaic acid, densitometric analysis

Molecule: C=C1[C@@H](O)[C@@H]2O[C@]3(CC[C@H](/C=C/[C@@H](C)[C@@H]4CC(C)=C[C@@]5(O[C@H](C[C@@](C)(O)C(=O)O)CC[C@H]5O)O4)O3)CC[C@H]2O[C@@H]1[C@@H](O)C[C@H](C)[C@H]1O[C@@]2(CCCCO2)CC[C@H]1C [okadaic acid]
- increase of the 50 and 66 kDa proteins with respect to plants exposed to low temperature without inhibitor [1, 3]: 2.2 fold
- increase of the 200 kDa protein with respect to plants exposed to low temperature without inhibitor [1, 3]: 9 fold
- accumulation of the 50, 66 and 200 kDa WCS120 proteins at low temperature ([1]; several concentrations of OA (10, 100 or 1000 nM)): significantly stimulated

Molecule: O=C(O)CN(CCOCCOCCN(CC(=O)O)CC(=O)O)CC(=O)O [EGTA]
- inhibition of the phosphorylation of MARCKS ([2]; 0.5 mM EGTA): only partial inhibition

Molecule: Calphostin C
- inhibition of MARCKS phosphorylation (32P incorporation, scintillation counting) ([2]; 0.5 mM Calphostin C): complete inhibition
- inhibition of MARCKS phosphorylation ([2]; Calphostin C at 0.1 µM): did not significantly inhibit
